Article PMC5218480 (PLoS ONE, 2017)

Test system: MV-4-11 cells
Test: Gene expression microarray analysis (Affymetrix PrimeView) and GSEA
Type: cell-based, human
Set-up: RFU PODN (11730768_x_at) / Fold change /veh PODN (11730768_x_at) / RFU LINC00158 (11744669_a_at) / Fold change /veh LINC00158 (11744669_a_at) / RFU DUSP10 (11751237_a_at) / Fold change /veh DUSP10 (11751237_a_at) / RFU ID3 (11757404_x_at) / Fold change /veh ID3 (11757404_x_at) / RFU PLEKHG5 (11737974_s_at) / Fold change /veh PLEKHG5 (11737974_s_at) / RFU LRRC4B (11730491_at) / Fold change /veh LRRC4B (11730491_at) / RFU GIMAP4 (11747438_a_at) / Fold change /veh GIMAP4 (11747438_a_at) / RFU KRT8 (11758183_x_at) / Fold change /veh KRT8 (11758183_x_at) / RFU CNN1 (11734310_a_at) / Fold change /veh CNN1 (11734310_a_at) / RFU VPS37D (11726825_at) / Fold change /veh VPS37D (11726825_at) / RFU C10orf10 (11716522_x_at) / Fold change /veh C10orf10 (11716522_x_at) / RFU KIR2DL2 /// KIR2DL4 /// KIR2DL5A /// KIR2DL5B /// KIR2DS1 /// KIR2DS2 /// KIR2DS3 /// KIR2DS4 /// KIR3DL3 /// KIR3DL3 /// KIR3DS1 (11738374_at) / Fold change /veh KIR2DL2 /// KIR2DL4 /// KIR2DL5A /// KIR2DL5B /// KIR2DS1 /// KIR2DS2 /// KIR2DS3 /// KIR2DS4 /// KIR3DL3 /// KIR3DL3 /// KIR3DS1 (11738374_at) / RFU C1QL1 (11718748_at) / Fold change /veh C1QL1 (11718748_at) / RFU TMPRSS4 (11747572_a_at) / Fold change /veh TMPRSS4 (11747572_a_at) / RFU HAMP (11756126_x_at) / Fold change /veh HAMP (11756126_x_at) / RFU RNFT2 (11725882_a_at) / Fold change /veh RNFT2 (11725882_a_at) / RFU NR4A2 (11747474_a_at) / Fold change /veh NR4A2 (11747474_a_at) / RFU ABCC12 (11746883_a_at) / Fold change /veh ABCC12 (11746883_a_at) / RFU TMEM136 (11760407_x_at) / Fold change /veh TMEM136 (11760407_x_at) / RFU CLDN22 /// WWC2 (11732394_at) / Fold change /veh CLDN22 /// WWC2 (11732394_at) / RFU HLA-DPB1 (11760878_x_at) / Fold change /veh HLA-DPB1 (11760878_x_at) / RFU SPINT1 (11716480_a_at) / Fold change /veh SPINT1 (11716480_a_at) / RFU GAP43 (11754022_s_at) / Fold change /veh GAP43 (11754022_s_at) / RFU A4GNT (11735810_at) / Fold change /veh A4GNT (11735810_at) / RFU PRB3 (11715151_x_at) / Fold change /veh PRB3 (11715151_x_at) / RFU TUBB4B (11761932_at) / Fold change /veh TUBB4B (11761932_at) / RFU CAPN14 (11732068_a_at) / Fold change /veh CAPN14 (11732068_a_at) / RFU TMCC2 (11721928_a_at) / Fold change /veh TMCC2 (11721928_a_at) / RFU IRGQ (11745062_a_at) / Fold change /veh IRGQ (11745062_a_at) / RFU FAM174B (11720279_a_at) / Fold change /veh FAM174B (11720279_a_at) / RFU TMPRSS4 (11748680_a_at) / Fold change /veh TMPRSS4 (11748680_a_at) / RFU FAM212B (11763350_a_at) / Fold change /veh FAM212B (11763350_a_at) / RFU PLEKHG5 (11743358_a_at) / Fold change /veh PLEKHG5 (11743358_a_at) / RFU ZSCAN30 (11745921_a_at) / Fold change /veh ZSCAN30 (11745921_a_at) / RFU CMKLR1 (11741424_a_at) / Fold change /veh CMKLR1 (11741424_a_at) / RFU LOC101060620 /// MAPK8IP1 (11723275_at) / Fold change /veh LOC101060620 /// MAPK8IP1 (11723275_at) / RFU SPTSSB (11747773_x_at) / Fold change /veh SPTSSB (11747773_x_at) / RFU PRSS12 (11739890_at) / Fold change /veh PRSS12 (11739890_at) / RFU BIN1 (11741810_x_at) / Fold change /veh BIN1 (11741810_x_at) / RFU WNT11 (11732464_a_at) / Fold change /veh WNT11 (11732464_a_at) / RFU C10orf10 (11716521_a_at) / Fold change /veh C10orf10 (11716521_a_at) / RFU C5orf56 (11738089_at) / Fold change /veh C5orf56 (11738089_at) / RFU CYB561 (11721691_x_at) / Fold change /veh CYB561 (11721691_x_at) / RFU ANKRD19P (11752326_a_at) / Fold change /veh ANKRD19P (11752326_a_at) / RFU OR2T12 /// OR2T33 /// OR2T8 (11738714_s_at) / Fold change /veh OR2T12 /// OR2T33 /// OR2T8 (11738714_s_at) / RFU VCAN (11748164_a_at) / Fold change /veh VCAN (11748164_a_at) / RFU JSRP1 (11732532_at) / Fold change /veh JSRP1 (11732532_at) / RFU KRTAP10-11 (11738290_x_at) / Fold change /veh KRTAP10-11 (11738290_x_at) / RFU MYO3A (11730013_a_at) / Fold change /veh MYO3A (11730013_a_at) / RFU EBF3 (11725865_a_at) / Fold change /veh EBF3 (11725865_a_at) / RFU CAMK2N1 (11719241_x_at) / Fold change /veh CAMK2N1 (11719241_x_at) / RFU C5orf56 (11738088_a_at) / Fold change /veh C5orf56 (11738088_a_at) / RFU OLFML3 (11715873_a_at) / Fold change /veh OLFML3 (11715873_a_at) / RFU LOC100653217 /// NTM (11731650_a_at) / Fold change /veh LOC100653217 /// NTM (11731650_a_at) / RFU MAPK11 (11762145_a_at) / Fold change /veh MAPK11 (11762145_a_at) / RFU FIZ1 (11724087_x_at) / Fold change /veh FIZ1 (11724087_x_at) / RFU OASL (11726364_x_at) / Fold change /veh OASL (11726364_x_at) / RFU SOX15 (11748057_x_at) / Fold change /veh SOX15 (11748057_x_at) / RFU CD79A (11719716_a_at) / Fold change /veh CD79A (11719716_a_at) / RFU HIST1H1D (11736915_at) / Fold change /veh HIST1H1D (11736915_at) / RFU CASKIN2 (11723855_a_at) / Fold change /veh CASKIN2 (11723855_a_at) / RFU LOC730098 (11760151_x_at) / Fold change /veh LOC730098 (11760151_x_at) / RFU OR4N2 (11742367_at) / Fold change /veh OR4N2 (11742367_at) / RFU PRRT2 (11749266_a_at) / Fold change /veh PRRT2 (11749266_a_at) / RFU SNX32 (11753110_a_at) / Fold change /veh SNX32 (11753110_a_at) / RFU CDHR5 (11726645_a_at) / Fold change /veh CDHR5 (11726645_a_at) / RFU RCAN1 (11760418_a_at) / Fold change /veh RCAN1 (11760418_a_at) / RFU FAM167A (11723789_a_at) / Fold change /veh FAM167A (11723789_a_at) / RFU FAM26E (11764081_at) / Fold change /veh FAM26E (11764081_at) / RFU ISYNA1 (11749810_s_at) / Fold change /veh ISYNA1 (11749810_s_at) / RFU ACY1 (11761880_at) / Fold change /veh ACY1 (11761880_at) / RFU 11764098_at / Fold change /veh 11764098_at / RFU SAMD14 (11745864_x_at) / Fold change /veh SAMD14 (11745864_x_at) / RFU NPB (11741838_a_at) / Fold change /veh NPB (11741838_a_at) / RFU TMPRSS6 (11731388_a_at) / Fold change /veh TMPRSS6 (11731388_a_at) / RFU KRTAP10-2 (11738614_at) / Fold change /veh KRTAP10-2 (11738614_at) / RFU ARHGAP8 /// PRR5-ARHGAP8 (11727945_x_at) / Fold change /veh ARHGAP8 /// PRR5-ARHGAP8 (11727945_x_at) / RFU KRTAP5-7 /// NADSYN1 (11734609_at) / Fold change /veh KRTAP5-7 /// NADSYN1 (11734609_at) / RFU RASL12 (11751679_a_at) / Fold change /veh RASL12 (11751679_a_at) / RFU CDKN2B (11736163_a_at) / Fold change /veh CDKN2B (11736163_a_at) / RFU PRF1 (11729649_at) / Fold change /veh PRF1 (11729649_at) / RFU, ZNF638 /// ZNF638-IT1 / Fold change vs veh, ZNF638 /// ZNF638-IT1 / RFU, PANK3 / Fold change vs veh, PANK3 / RFU, SH3YL1 / Fold change vs veh, SH3YL1 / RFU, ZEB2 / Fold change vs veh, ZEB2 / RFU, NRIP1 / Fold change vs veh, NRIP1 / RFU, PTTG1IP / Fold change vs veh, PTTG1IP / RFU, CAPN2 / Fold change vs veh, CAPN2 / RFU, MED14 / Fold change vs veh, MED14 / RFU, SNORA58 / Fold change vs veh, SNORA58 / RFU, C1orf63 / Fold change vs veh, C1orf63 / RFU, LRRFIP1 / Fold change vs veh, LRRFIP1 / RFU, NDUFAF7 / Fold change vs veh, NDUFAF7 / RFU, SLC12A2 / Fold change vs veh, SLC12A2 / RFU, IBTK / Fold change vs veh, IBTK / RFU, ESF1 / Fold change vs veh, ESF1 / Fold change vs veh, TMEM50B / RFU, TAOK1 / Fold change vs veh, TAOK1 / RFU, ACBD3 / Fold change vs veh, ACBD3 / RFU, TMA16 / Fold change vs veh, TMA16 / RFU, RWDD3 / Fold change vs veh, RWDD3 / RFU, BCAT1 / Fold change vs veh, BCAT1 / RFU, EDEM3 / Fold change vs veh, EDEM3 / RFU, TMEM33 / Fold change vs veh, TMEM33 / RFU, WDR75 / Fold change vs veh, WDR75 / RFU, AHCTF1 / Fold change vs veh, AHCTF1 / RFU, TFRC / Fold change vs veh, TFRC / RFU, ZDHHC17 / Fold change vs veh, ZDHHC17 / RFU, NOM1 / Fold change vs veh, NOM1 / RFU, ARL8B / Fold change vs veh, ARL8B / RFU, ZBTB11 / Fold change vs veh, ZBTB11 / RFU, TAMM41 / Fold change vs veh, TAMM41 / RFU, KIAA1704 /// LOC100996395 / Fold change vs veh, KIAA1704 /// LOC100996395 / RFU, ING1 / Fold change vs veh, ING1 / RFU, TRMT61B / Fold change vs veh, TRMT61B / RFU, FUBP3 / Fold change vs veh, FUBP3 / RFU, TP53 / Fold change vs veh, TP53 / RFU, TNKS2 / Fold change vs veh, TNKS2 / RFU, ZFP14 / Fold change vs veh, ZFP14 / RFU, ACTR2 / Fold change vs veh, ACTR2 / RFU, PPP3R1 / Fold change vs veh, PPP3R1 / RFU, PIK3R1 / Fold change vs veh, PIK3R1 / RFU, HNRNPA1 / Fold change vs veh, HNRNPA1 / RFU, RNF170 / Fold change vs veh, RNF170 / RFU, ZNF28 / Fold change vs veh, ZNF28 / RFU, RNGTT / Fold change vs veh, RNGTT / RFU, OGT / Fold change vs veh, OGT / RFU, BRD1 / Fold change vs veh, BRD1 / RFU, MARS / Fold change vs veh, MARS / RFU, ZNF655 / Fold change vs veh, ZNF655 / RFU, FAHD1 / Fold change vs veh, FAHD1 / RFU, BDP1 / Fold change vs veh, BDP1 / RFU, LRRCC1 / Fold change vs veh, LRRCC1 / RFU, ARID1A / Fold change vs veh, ARID1A / RFU, ZNF146 / Fold change vs veh, ZNF146 / RFU, ZNF330 / Fold change vs veh, ZNF330 / RFU, GPN3 / Fold change vs veh, GPN3 / RFU, C9orf123 / Fold change vs veh, C9orf123 / RFU, N4BP2L2 / Fold change vs veh, N4BP2L2 / RFU, ARFIP1 / Fold change vs veh, ARFIP1 / RFU, FAM179B / Fold change vs veh, FAM179B / RFU, BCL10 / Fold change vs veh, BCL10 / RFU, UHRF1BP1L / Fold change vs veh, UHRF1BP1L / RFU, BET1 / Fold change vs veh, BET1 / RFU, CNOT2 / Fold change vs veh, CNOT2 / RFU, ZNF268 / Fold change vs veh, ZNF268 / Fold change vs veh, ZNF507 / RFU, DGCR2 / Fold change vs veh, DGCR2 / RFU, WDSUB1 / Fold change vs veh, WDSUB1 / Fold change vs veh, HSP90B1 /// MIR3652 / RFU, ADSS / Fold change vs veh, ADSS / RFU, GK / Fold change vs veh, GK / RFU, ZNF148 / Fold change vs veh, ZNF148 / RFU, TAF9 / Fold change vs veh, TAF9 / RFU, SLC1A5 / Fold change vs veh, SLC1A5 / RFU, SLMO2 / Fold change vs veh, SLMO2 / RFU, ABCC4 / Fold change vs veh, ABCC4 / RFU, LOC101060439 /// RAP1B / Fold change vs veh, LOC101060439 /// RAP1B / RFU, RFX7 / Fold change vs veh, RFX7 / RFU, GTPBP10 / Fold change vs veh, GTPBP10 / RFU, CNEP1R1 / Fold change vs veh, CNEP1R1 / RFU, BIVM-ERCC5 /// ERCC5 / Fold change vs veh, BIVM-ERCC5 /// ERCC5 / RFU, ILF3 / Fold change vs veh, ILF3 / RFU 11762660_at / Fold change /veh 11762660_at / RFU VCAN (11757783_s_at) / Fold change /veh VCAN (11757783_s_at) / RFU DDX43 (11728927_at) / Fold change /veh DDX43 (11728927_at) / RFU KRT8 (11758188_x_at) / Fold change /veh KRT8 (11758188_x_at) / RFU NKD1 (11759106_at) / Fold change /veh NKD1 (11759106_at) / RFU SRD5A1 (11742802_a_at) / Fold change /veh SRD5A1 (11742802_a_at) / RFU TPSAB1 /// TPSB2 (11721975_s_at) / Fold change /veh TPSAB1 /// TPSB2 (11721975_s_at) / RFU GSTM3 (11746129_a_at) / Fold change /veh GSTM3 (11746129_a_at) / RFU IL23R (11737362_x_at) / Fold change /veh IL23R (11737362_x_at) / RFU TMEM51 (11727254_a_at) / Fold change /veh TMEM51 (11727254_a_at) / RFU PIWIL2 (11732686_x_at) / Fold change /veh PIWIL2 (11732686_x_at) / RFU ORM1 (11744905_x_at) / Fold change /veh ORM1 (11744905_x_at) / RFU CCDC152 (11743942_at) / Fold change /veh CCDC152 (11743942_at) / RFU ECM1 (11717891_a_at) / Fold change /veh ECM1 (11717891_a_at) / RFU IL23R (11748794_a_at) / Fold change /veh IL23R (11748794_a_at) / RFU TNFAIP8L3 (11732012_x_at) / Fold change /veh TNFAIP8L3 (11732012_x_at) / RFU MBOAT4 (11741988_at) / Fold change /veh MBOAT4 (11741988_at) / RFU 11764193_at / Fold change /veh 11764193_at / RFU TMEM53 (11763286_at) / Fold change /veh TMEM53 (11763286_at) / RFU MAGEB2 (11727129_at) / Fold change /veh MAGEB2 (11727129_at) / RFU TMEM200A (11744735_a_at) / Fold change /veh TMEM200A (11744735_a_at) / RFU CCDC152 (11751479_a_at) / Fold change /veh CCDC152 (11751479_a_at) / RFU FAM211A (11726209_a_at) / Fold change /veh FAM211A (11726209_a_at) / RFU RGS16 (11746705_a_at) / Fold change /veh RGS16 (11746705_a_at) / RFU VCAN (11755009_s_at) / Fold change /veh VCAN (11755009_s_at) / RFU RHOB (11743442_s_at) / Fold change /veh RHOB (11743442_s_at) / RFU RGS16 (11720943_a_at) / Fold change /veh RGS16 (11720943_a_at) / RFU RGS16 (11720944_at) / Fold change /veh RGS16 (11720944_at) / RFU, VPS4B / Fold change vs veh, VPS4B / RFU, CREB1 / Fold change vs veh, CREB1 / RFU, DNAJC13 / Fold change vs veh, DNAJC13 / RFU, GNAQ / Fold change vs veh, GNAQ / RFU, CDK5R1 / Fold change vs veh, CDK5R1 / RFU, ZRANB3 / Fold change vs veh, ZRANB3 / RFU, CUL4A / Fold change vs veh, CUL4A / RFU, CCNY / Fold change vs veh, CCNY / RFU, UFL1 / Fold change vs veh, UFL1 / RFU, COG3 / Fold change vs veh, COG3 / RFU, DIAPH2 / Fold change vs veh, DIAPH2 / RFU, SKA2 / Fold change vs veh, SKA2 / RFU, AFF3 / Fold change vs veh, AFF3 / RFU, LMF1 / Fold change vs veh, LMF1 / RFU, IPO11 / Fold change vs veh, IPO11 / RFU, DFFB / Fold change vs veh, DFFB / RFU, FOXP1 / Fold change vs veh, FOXP1 / RFU, CARD8 / Fold change vs veh, CARD8 / RFU, STRN3 / Fold change vs veh, STRN3 / RFU, ADK / Fold change vs veh, ADK / RFU, RASSF2 / Fold change vs veh, RASSF2 / RFU, WIPF1 / Fold change vs veh, WIPF1 / RFU, LARP1B / Fold change vs veh, LARP1B / RFU, RASA1 / Fold change vs veh, RASA1 / RFU, RB1 / Fold change vs veh, RB1 / RFU, PPFIA1 / Fold change vs veh, PPFIA1 / RFU, MAT2A / Fold change vs veh, MAT2A / RFU, CCT5 / Fold change vs veh, CCT5 / RFU, WDR92 / Fold change vs veh, WDR92 / RFU, CUX1 / Fold change vs veh, CUX1 / RFU, TTC7A / Fold change vs veh, TTC7A / RFU, TMEM135 / Fold change vs veh, TMEM135 / RFU, DEPTOR / Fold change vs veh, DEPTOR / RFU, CPM / Fold change vs veh, CPM / RFU, DNAJB6 / Fold change vs veh, DNAJB6 / RFU, CACNA2D3 / Fold change vs veh, CACNA2D3 / RFU, DTX4 / Fold change vs veh, DTX4 / RFU, TFCP2 / Fold change vs veh, TFCP2 / RFU, GMCL1 /// GMCL1P1 / Fold change vs veh, GMCL1 /// GMCL1P1 / RFU, AEBP2 / Fold change vs veh, AEBP2 / RFU, SNHG1 /// SNORD22 /// SNORD25 /// SNORD26 /// SNORD27 /// SNORD28 /// SNORD29 /// SNORD31 / Fold change vs veh, SNHG1 /// SNORD22 /// SNORD25 /// SNORD26 /// SNORD27 /// SNORD28 /// SNORD29 /// SNORD31 / Fold change (Aza/veh), C12orf56 (ProbeSet 11735607_a_at) / Fold change (ACY-1035/veh), C12orf56 (ProbeSet 11735607_a_at) / Fold change (Aza/veh), FGFR1OP (ProbeSet 11751329_s_at) / Fold change (ACY-1035/veh), FGFR1OP (ProbeSet 11751329_s_at) / Fold change (Aza/veh), VPS36 (ProbeSet 11739960_a_at) / Fold change (ACY-1035/veh), VPS36 (ProbeSet 11739960_a_at) / RFU SYPL1 (11715823_x_at) / Fold change /veh SYPL1 (11715823_x_at) / RFU IGFBP7 (11715501_s_at) / Fold change /veh IGFBP7 (11715501_s_at) / RFU REEP3 (11722064_at) / Fold change /veh REEP3 (11722064_at) / RFU IGLL1 (11728026_x_at) / Fold change /veh IGLL1 (11728026_x_at): dose or concentration left out as unconfirmed
Conditions: ProbeSet 11738335_x_at; LIST B

Compound: Nc1ccc(-c2cccs2)cc1NC(=O)c1ccc2c(c1)cc(C1CC1)n2CCN1CCOCC1 [ACY-1035]
- Fold change vs veh, TP53: 0.84
